Values quoted from earlier work in patent US20080234335A1, “Cyclohexene Compounds” (priority 2003, published 2008).

Tests used:
[1] = molecular target: T1, EP1 receptor (Rattus norvegicus, UniProt P70597); parameters: host or cells: live rat (in vivo); details: rat model of chronic constriction injury
T1 sequence (P70597 1-405): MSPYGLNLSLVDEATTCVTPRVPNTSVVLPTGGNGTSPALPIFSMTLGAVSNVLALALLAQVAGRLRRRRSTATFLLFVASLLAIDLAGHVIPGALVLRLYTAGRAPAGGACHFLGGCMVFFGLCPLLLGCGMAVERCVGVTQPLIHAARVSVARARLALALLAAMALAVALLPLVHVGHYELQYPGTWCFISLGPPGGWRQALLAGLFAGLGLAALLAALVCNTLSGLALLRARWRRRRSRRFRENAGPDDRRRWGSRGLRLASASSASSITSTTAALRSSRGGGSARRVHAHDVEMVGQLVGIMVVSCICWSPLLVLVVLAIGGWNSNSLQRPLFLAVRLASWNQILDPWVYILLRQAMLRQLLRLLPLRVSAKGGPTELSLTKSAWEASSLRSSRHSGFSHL

[2] = molecular target: T1, EP1 receptor; parameters: host or cells: live rodent (in vivo); details: rodent model of post-operative pain

Cc1cc(Cl)ccc1S(=O)(=O)NC[C@H]1C2CCC(CC2)[C@@H]1/C=C\CCCC(=O)O [ONO-8711]
effect on hyperalgesia and allodynia [1]: reduces hyperalgesia and allodynia | effect on mechanical hyperalgesia [2]: inhibits mechanical hyperalgesia
